Results on four molecules are retold here after patent US5571804A, “Cephalosporin antibiotics” (priority 1993, dated 1996).

In one data set the test system is Staphylococcus aureus 77. Put plainly: MIC, two-fold agar dilution. The class given is cell-based. The note with it: Muller-Hinton agar, 37° C., 20 hours.
Data set [1] concerns Staphylococcus aureus giorgio. Put plainly: MIC, two-fold agar dilution. The following applies: Muller-Hinton agar, 37° C., 20 hours. The format is cell-based.
For another data set, the system named is E. coli 3190Y. Briefly: MIC, two-fold agar dilution. The format is cell-based. The following applies: Muller-Hinton agar, 37° C., 20 hours.
Data set [2] deals with Streptococcus laecalis 29212A. Put plainly: MIC, two-fold agar dilution. The following applies: Muller-Hinton agar, 37° C., 20 hours. The format is cell-based. On the technique in general: In agar dilution, organisms are placed on agar that contains the substance at set levels.
Data set [3] deals with Staphylococcus epidermidis 887E. Put plainly: MIC, two-fold agar dilution. The class given is cell-based. The following applies: Muller-Hinton agar, 37° C., 20 hours.
The subject of data set [4] is Acinetobacter calcoaceticus 15473A. Put plainly: MIC, two-fold agar dilution. The class given is cell-based. The following applies: Muller-Hinton agar, 37° C., 20 hours.
The test system of data set [5] is Pseudomonas aeruginosa 1912E. Put plainly: MIC, two-fold agar dilution. The format is cell-based. The note with it: Muller-Hinton agar, 37° C., 20 hours.
In data set [6] the test system is Staphylococcus aureus 241. Briefly: MIC, two-fold agar dilution. The following applies: Muller-Hinton agar, 37° C., 20 hours. The format is cell-based.
Data set [7] in a line: pharmakinetic variables in SD rats. The following applies: rat, in vivo, iv, 20 mg/kg. The procedure:
The pharmakinetic variables were determined using SD rats (.male.) of a body weight of 230±10g as follows. The "S" compound of each of the Examples was injected to femoral vein of 4-5 rats by 20mg/Kg and then blood was collected from femoral artery in 1, 2.5, 5, 10, 20, 40, 60 and 120 min.

Data set [8] relates to Staphylococcus aureus 6538P. Put plainly: MIC, two-fold agar dilution. The format is cell-based. The note with it: Muller-Hinton agar, 37° C., 20 hours.
Data set [9] has as its system Pseudomonas aeruginosa 6065. Put plainly: MIC, two-fold agar dilution. The class given is cell-based. The note with it: Muller-Hinton agar, 37° C., 20 hours.
Data set [10] concerns Pseudomonas aeruginosa 10145. Put plainly: MIC, two-fold agar dilution. The format is cell-based. The note with it: Muller-Hinton agar, 37° C., 20 hours.
The test system of data set [11] is Serratia marcescens 1826E. Briefly: MIC, two-fold agar dilution. The class given is cell-based. The following applies: Muller-Hinton agar, 37° C., 20 hours.
Data set [12] concerns Salmonella typhimurium 14028A. Briefly: MIC, two-fold agar dilution. The format is cell-based. The note with it: Muller-Hinton agar, 37° C., 20 hours.
In the next data set the test system is Proteus vularis 6059A. Briefly: MIC, two-fold agar dilution. The format is cell-based. The following applies: Muller-Hinton agar, 37° C., 20 hours.
The subject of a further data set is E. coli 10536. Briefly: MIC, two-fold agar dilution. The class given is cell-based. The note with it: Muller-Hinton agar, 37° C., 20 hours.
For data set [13], the system named is Klebsiella aerogenes K1 + 1082E. Briefly: MIC, two-fold agar dilution. The format is cell-based. The note with it: Muller-Hinton agar, 37° C., 20 hours.
The subject of data set [14] is Citrobacter diversus 2046E. Briefly: MIC, two-fold agar dilution. The format is cell-based. The note with it: Muller-Hinton agar, 37° C., 20 hours.
The subject of the next data set is E. coli TEM7 3457E. Briefly: MIC, two-fold agar dilution. The note with it: Muller-Hinton agar, 37° C., 20 hours. The class given is cell-based.
For data set [15], the system named is Klebsiella aerogenes SHV-1 1976E. Briefly: MIC, two-fold agar dilution. The format is cell-based. The note with it: Muller-Hinton agar, 37° C., 20 hours.
In another data set the test system is Enterobacter cloacae P99. Put plainly: MIC, two-fold agar dilution. The note with it: Muller-Hinton agar, 37° C., 20 hours. The format is cell-based.
The test system of the next data set is E. coli TEM9 2639E. Put plainly: MIC, two-fold agar dilution. The class given is cell-based. The following applies: Muller-Hinton agar, 37° C., 20 hours.
A further data set deals with E. coli TEM5 3739E. Put plainly: MIC, two-fold agar dilution. The format is cell-based. The note with it: Muller-Hinton agar, 37° C., 20 hours.
A further data set has as its system E. coli 851E. Put plainly: MIC, two-fold agar dilution. The note with it: Muller-Hinton agar, 37° C., 20 hours. The class given is cell-based.
The next data set deals with E. coli TEM3 3455E. Put plainly: MIC, two-fold agar dilution. The note with it: Muller-Hinton agar, 37° C., 20 hours. The class given is cell-based.
The subject of data set [16] is Enterobacter cloacae IND + VE 1194E. Put plainly: MIC, two-fold agar dilution. The class given is cell-based. The following applies: Muller-Hinton agar, 37° C., 20 hours.
The subject of a further data set is E. coli TEM1 1193E. Briefly: MIC, two-fold agar dilution. The following applies: Muller-Hinton agar, 37° C., 20 hours. The format is cell-based.

As to `CC(C)(O/N=C(\C(=O)N[C@@H]1C(=O)N2C(C(=O)[O-])=C(C[n+]3ccccc3)CS[C@H]12)c1csc(N)n1)C(=O)O` [Ceftazidime, reference compound], the “minimal inhibitory concentration (MIC)” value in the data set with Staphylococcus aureus 77 is listed as 32; in [1], 4; in the data set on E. coli 3190Y, 0.063; in data set [2], more than 128; in data set [3] it was more than 128; in data set [4], 2. In addition, the “minimal inhibitory concentration (MIC)” value in [5] is given as 1; in [6], more than 128; in [8], 16; in data set [9], 16; in data set [10] it was 2; in data set [11], 0.25. Further, the “minimal inhibitory concentration (MIC)” value is recorded as 0.25 in data set [12]; 0.063 in the data set with Proteus vularis 6059A; 0.13 in the data set on E. coli 10536; 0.25 in [13]; 0.5 in data set [14]. The same molecule gave an AUC at 2 h in [7] of 31100 ng·h/mL.
Turning to `Nc1nc(/C(=N/O[C@@H](C(=O)O)c2ccc(O)c(O)c2)C(=O)N[C@@H]2C(=O)N3C(C(=O)O)=C(CSc4nc(N)c5c(n4)CCC5)CS[C@H]23)cs1` [Compound I-4R, 7-[(Z)-2-(aminothiazol-4-yl)-2-(α-carboxyl-3,4-dihydroxybenzyioxyimino)acetamido]-3-(4-amino-5,6-cyclopentapyrimidine-2-yl)thiomethyl-3-cephem-4-carboxylate], the “minimal inhibitory concentration (MIC)” value in the data set on Staphylococcus aureus 77 is reported as 32; in data set [1], 2; in the data set with E. coli 3190Y, 0.25; in the data set on E. coli TEM7 3457E, 0.063; in [15] it was 0.5; in the data set on Enterobacter cloacae P99, 32. Besides, the “minimal inhibitory concentration (MIC)” value was 16 in [2]; 0.5 in the data set on E. coli TEM9 2639E; 32 in data set [3]; 0.25 in the data set with E. coli TEM5 3739E; 1 in data set [4]; 128 in [6]. Also, the “minimal inhibitory concentration (MIC)” value is on record as 2 in data set [8]; 8 in [9]; 2 in [10]; 2 in data set [11]; 0.13 in data set [12]; 0.5 in the data set with Proteus vularis 6059A. The “minimal inhibitory concentration (MIC)” value came out at 0.063 in the data set with E. coli 10536; 1 in data set [13]; 0.13 in the data set with E. coli 851E; 2 in data set [14]; 0.25 in the data set with E. coli TEM3 3455E; 32 in [16]. The “minimal inhibitory concentration (MIC)” value in the data set with E. coli TEM1 1193E worked out at 0.5.
For the molecule `Nc1cc(SCC2=C(C(=O)O)N3C(=O)[C@@H](NC(=O)/C(=N\O[C@@H](C(=O)O)c4ccc(O)c(O)c4)c4csc(N)n4)[C@H]3SC2)nc(N)n1` [Compound I-6R, 7-[(Z)-2-(aminothiazol-4-yl)-2-(α-carboxy-3,4-dihydroxybenzyloxyimino)acetamido]-3-(2,6-diamino-pyrimidine-4-yl)thiomethyl-3-cephem-4-carboxylate], the “minimal inhibitory concentration (MIC)” value turned out to be 16 with Staphylococcus aureus 77; 1 in data set [1]; 0.063 in the data set with E. coli 3190Y; 0.016 in the data set on E. coli TEM7 3457E; 0.25 in [15]; 8 with Enterobacter cloacae P99. Also, the “minimal inhibitory concentration (MIC)” value in data set [2] is 4; in the data set with E. coli TEM9 2639E, 0.25; in [3], 32; in the data set with E. coli TEM5 3739E it was 0.063; in data set [4], 0.25; in [5], 0.25. The “minimal inhibitory concentration (MIC)” value in data set [6] was 64; in data set [8], 1; in data set [9] it was 1; in data set [10], 0.25; in data set [11], 0.5; in data set [12] it was 0.13. The “minimal inhibitory concentration (MIC)” value with Proteus vularis 6059A amounted to 0.25; in the data set on E. coli 10536 it was 0.016; in [13] it was 0.25; with E. coli 851E, 0.063; in data set [14], 0.13; in the data set on E. coli TEM3 3455E, 0.031. Moreover, the “minimal inhibitory concentration (MIC)” value was determined as 4 in data set [16] and 0.063 in the data set on E. coli TEM1 1193E.
For the molecule `Nc1cc(SCC2=C(C(=O)O)N3C(=O)[C@@H](NC(=O)/C(=N\O[C@H](C(=O)O)c4ccc(O)c(O)c4)c4csc(N)n4)[C@H]3SC2)nc(N)n1` [Compound I-6S, 7-[(Z)-2-(aminothiazol-4-yl)-2-(α-carboxy-3,4-dihydroxybenzyloxyimino)acetamido]-3-(2,6-diamino-pyrimidine-4-yl)thiomethyl-3-cephem-4-carboxylate], the “minimal inhibitory concentration (MIC)” value in the data set on Staphylococcus aureus 77 is reported as 8; in [1], 1; with E. coli 3190Y it was 0.031; with E. coli TEM7 3457E it was not above 0.008; in data set [15], 0.13; in the data set on Enterobacter cloacae P99, 8. Further, the “minimal inhibitory concentration (MIC)” value in [2] was 2; in the data set with E. coli TEM9 2639E, 0.13; in data set [3], 32; in the data set on E. coli TEM5 3739E it was 0.063; in data set [4], 0.13; in data set [6], 64. The “minimal inhibitory concentration (MIC)” value came out at 1 in data set [8]; 0.25 in data set [9]; 0.25 in data set [10]; 0.13 in [11]; 0.016 in data set [12]; 0.13 with Proteus vularis 6059A. For the same molecule, the “minimal inhibitory concentration (MIC)” value was not above 0.008 in the data set on E. coli 10536; 0.031 in data set [13]; 0.031 in the data set with E. coli 851E; 0.063 in [14]; 0.016 in the data set on E. coli TEM3 3455E; 2 in data set [16]. Further, the “minimal inhibitory concentration (MIC)” value in the data set with E. coli TEM1 1193E came out at 0.031. Moreover, the AUC at 2 h in data set [7] is 59800 ng·h/mL. Moreover, in [7], the half-life worked out at 1.03 h.

A word on the AUC: it is concentration integrated over time. Higher therefore signals more exposure. The term half-life denotes the time in which the quantity being followed falls by half. Higher therefore signals slow loss.
